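Five concentrations, 48 hours, 96-well plates. The concentration for full growth arrest is given as TGI.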
Tests used:
Assay in all cases: NCI-60 cell line screen, 48 h
[1] = tested on: HOP-62 NSCLC
[2] = tested on: NCI-H522 lung
[3] = tested on: SNB-19 CNS
[4] = tested on: MDA-MB-435
[5] = tested on: NCI-H460 lung
[6] = tested on: SW-620 colon
[7] = tested on: SF-539 CNS
[8] = tested on: MDA-N
[9] = tested on: DU-145 prostate
[10] = tested on: LOX IMVI melanoma
[11] = tested on: SN12C renal
[12] = tested on: 786-0 renal
[13] = tested on: HL-60(TB) leukemia
[14] = tested on: SK-MEL-5 melanoma
[15] = tested on: RPMI-8226 leukemia
[16] = tested on: SK-MEL-2 melanoma
[17] = tested on: MCF7 breast
[18] = tested on: EKVX NSCLC
[19] = tested on: HCT-15 colon
[20] = tested on: OVCAR-4 ovarian
[21] = tested on: SK-MEL-28 melanoma
[22] = tested on: SF-268 CNS
[23] = tested on: HS 578T breast
[24] = tested on: MDA-MB-231 breast
[25] = tested on: HT29 colon
[26] = tested on: NCI-H23 lung
[27] = tested on: UACC-62 melanoma
[28] = tested on: CAKI-1 renal
[29] = tested on: SNB-75 CNS
[30] = tested on: TK-10 renal
[31] = tested on: HOP-92 NSCLC
[32] = tested on: T-47D breast
[33] = tested on: NCI/ADR-RES ovarian
[34] = tested on: HCC-2998 colon
[35] = tested on: U251 CNS
[36] = tested on: UO-31 renal
[37] = tested on: ACHN renal
[38] = tested on: SF-295 CNS
[39] = tested on: BT-549 breast
[40] = tested on: KM12 colon
[41] = tested on: M14 melanoma
[42] = tested on: IGROV1 ovarian
[43] = tested on: SK-OV-3 ovarian
[44] = tested on: MOLT-4 leukemia
[45] = tested on: SR leukemia
[46] = tested on: NCI-H226 lung
[47] = tested on: PC-3 prostate
[48] = tested on: A498 renal
[49] = tested on: CCRF-CEM leukemia
[50] = tested on: OVCAR-3 ovarian
[51] = tested on: RXF 393 renal
[52] = tested on: OVCAR-8 ovarian
[53] = tested on: COLO 205 colon
[54] = tested on: HCT-116 colon
[55] = tested on: K-562 leukemia
[56] = tested on: OVCAR-5 ovarian
[57] = tested on: MALME-3M melanoma
[58] = tested on: A549 NSCLC
[59] = tested on: UACC-257 melanoma

## C=C1C(=O)OC2/C=C(\CO)CC/C=C(\CO)CC(OC(=O)C(C)C)C12 (stereo not drawn)
[1]
  TGI: 36.3 µM
[2]
  TGI: 4.11 µM
[3]
  TGI: 45.9 µM
[4]
  TGI: 29.5 µM
[5]
  TGI: 38.6 µM
[6]
  TGI: 22.9 µM
[7]
  TGI: 29 µM
[8]
  TGI: 17.9 µM
[9]
  TGI: 29.5 µM
[10]
  TGI: 45.8 µM
[11]
  TGI: 26.1 µM
[12]
  TGI: 20.2 µM
[13]
  TGI: > 24.8 µM
[14]
  TGI: 36 µM
[15]
  TGI: 25.5 µM
[16]
  TGI: 30.8 µM
[17]
  TGI: 8.85 µM
[18]
  TGI: 38.8 µM
[19]
  TGI: 11.6 µM
[20]
  TGI: 44 µM
[21]
  TGI: 42.4 µM
[22]
  TGI: 19.8 µM
[23]
  TGI: 49 µM
[24]
  TGI: 38 µM
[25]
  TGI: 30 µM
[26]
  TGI: 38.5 µM
[27]
  TGI: 29.4 µM
[28]
  TGI: 3.31 µM
[29]
  TGI: 32.2 µM
[30]
  TGI: 15.6 µM
[31]
  TGI: 4.13 µM
[32]
  TGI: 24.8 µM
[33]
  TGI: 45.3 µM
[34]
  TGI: 37.2 µM
[35]
  TGI: 43.3 µM
[36]
  TGI: 27.4 µM
[37]
  TGI: 3.54 µM
[38]
  TGI: 45.5 µM
[39]
  TGI: 23.4 µM
[40]
  TGI: 33.5 µM
[41]
  TGI: 19.9 µM
[42]
  TGI: 33.6 µM
[43]
  TGI: > 55.9 µM
[44]
  TGI: > 27.4 µM
[45]
  TGI: > 52.1 µM
[46]
  TGI: 34.2 µM
[47]
  TGI: 31.1 µM
[48]
  TGI: 59.2 µM
[49]
  TGI: > 33.2 µM
[50]
  TGI: 23.9 µM
[51]
  TGI: 19.3 µM
[52]
  TGI: 45.7 µM
[53]
  TGI: 4.18 µM
[54]
  TGI: 47.9 µM
[55]
  TGI: > 24.2 µM
[56]
  TGI: 29.8 µM
[57]
  TGI: 4.45 µM
[58]
  TGI: 37 µM
[59]
  TGI: 27 µM

## COc1ccc(C2SCC(=O)N2NC(=O)C(C)Oc2ccccc2C)cc1 (stereo not drawn)
[1]
  TGI: > 100 µM
[2]
  TGI: > 100 µM
[3]
  TGI: > 100 µM
[4]
  TGI: > 100 µM
[5]
  TGI: > 100 µM
[6]
  TGI: > 100 µM
[7]
  TGI: > 100 µM
[8]
  TGI: > 100 µM
[9]
  TGI: > 100 µM
[10]
  TGI: > 100 µM
[11]
  TGI: > 100 µM
[12]
  TGI: > 100 µM
[13]
  TGI: 61.2 µM
[14]
  TGI: > 100 µM
[15]
  TGI: > 100 µM
[16]
  TGI: > 100 µM
[17]
  TGI: > 100 µM
[18]
  TGI: > 100 µM
[19]
  TGI: > 100 µM
[20]
  TGI: > 100 µM
[21]
  TGI: > 100 µM
[22]
  TGI: > 100 µM
[23]
  TGI: > 100 µM
[24]
  TGI: > 100 µM
[25]
  TGI: > 100 µM
[26]
  TGI: > 100 µM
[27]
  TGI: > 100 µM
[28]
  TGI: > 100 µM
[29]
  TGI: > 100 µM
[30]
  TGI: > 100 µM
[31]
  TGI: > 100 µM
[32]
  TGI: > 100 µM
[33]
  TGI: > 100 µM
[34]
  TGI: > 100 µM
[35]
  TGI: > 100 µM
[36]
  TGI: > 100 µM
[37]
  TGI: > 100 µM
[38]
  TGI: > 100 µM
[39]
  TGI: > 100 µM
[40]
  TGI: > 100 µM
[41]
  TGI: > 100 µM
[42]
  TGI: > 100 µM
[43]
  TGI: > 100 µM
[44]
  TGI: 87.9 µM
[45]
  TGI: > 100 µM
[46]
  TGI: > 100 µM
[47]
  TGI: > 100 µM
[48]
  TGI: > 100 µM
[49]
  TGI: > 100 µM
[50]
  TGI: > 100 µM
[51]
  TGI: > 100 µM
[52]
  TGI: > 100 µM
[53]
  TGI: > 100 µM
[54]
  TGI: > 100 µM
[55]
  TGI: > 100 µM
[56]
  TGI: > 100 µM
[57]
  TGI: > 100 µM
[58]
  TGI: > 100 µM
[59]
  TGI: > 100 µM

Reference: PubChem BioAssay (NCI)
